Read-outs that look alike come from different tables or passages of the source.
Legend:
Type in all cases: cell-based
[1] = tested on: ES-2 (human ovarian cancer); experiment: Cell culture cytotoxicity screening (Alamar Blue), ES-2; details: for IC50: ES-2, Alamar Blue
Procedure: (§1) FIG. 8. Cytotoxicity of pantaphos across various cancer cell lines. Assays were conducted as described (mBio. 2021 Feb. 2; 12(1):e03402-20), using the Alamar Blue method with 72-hour treatment using Raptinal ([…]) as Dead cell control; n=3. Cell seeding densities: CT26 (colon carcinoma) 2000 c/w; HOS (osteosarcoma) 2500 c/w; ES-2 (ovarian carcinoma), HCT-116 (colorectal carcinoma), A-549 (lung carcinoma), A-172 (glioblastoma), D54 (glioblastoma), U87 (glioblastoma), T98G (glioblastoma), SK-ML-28 (melanoma), MCF-7 (breast cancer), AM38 (glioblastoma) and MDA-MB-231 (breast cancer) 3000 c/w; U118MG (malignant glioma) 4000 c/w; HepG2 (liver cancer) 8000 c/w. c/w=cells per well. IC50 and Emax values shown in Table 6 were extracted from the raw data plotted in FIG. 8.
Cell culture cytotoxicity screening. The compounds were evaluated for their ability to kill cancer cell lines in culture, using HOS (osteosarcoma); ES-2 (ovarian cancer); HCT 116 (colon cancer); A549 (lung carcinoma); and A172 (glioma) cells. Human skin fibroblast cells (HFF-1) were also assessed. Cells were seeded (3000 cells well^−1 for ES-2, HCT 116, A549 and A172; 4000 cells well^−1 for HFF-1 and 2500 cells well^−1 for HOS) in a 96-well plate and allowed to attach overnight. Cells were treated with pantaphos in water. The concentrations of the tested compounds were 5 nM to 100 μM (1% water final; 100 μl well^−1). Raptinal (50 μM) was used as a dead control. On each plate, five technical replicates per compound were performed. 72 hours post-treatment, cell viability was assessed using the Alamar Blue method (http://www.bio-rad-antibodies.com/measuring-cytotoxicity-proliferation-spectrophotometry-fluorescence-alamarBlue.html). […] Conversion of Alamar Blue was measured with a plate reader (SpectraMax M3; Molecular Devices) by fluorescence (excitation wavelength: 555 nm; emission wavelength: 585 nm; cutoff 570 nm; autogain). Percentage death was determined by normalizing to water-treated cells and Raptinal-treated cells. […]

SK-ML-28 (melanoma) = experiment: Cytotoxicity profiling (Alamar Blue), SK-ML-28; details: Homo sapiens; SK-ML-28, Alamar Blue, 72-hour treatment
Procedure: as §1, with “IC50 and Emax values shown in Table 6 were extracted from the raw data plotted in FIG. 8.” left out
Cell culture cytotoxicity screening. The compounds were evaluated for their ability to kill cancer cell lines in culture, using HOS (osteosarcoma); ES-2 (ovarian cancer); HCT 116 (colon cancer); A549 (lung carcinoma); and A172 (glioma) cells. Human skin fibroblast cells (HFF-1) were also assessed. […] 72 hours post-treatment, cell viability was assessed using the Alamar Blue method (http://www.bio-rad-antibodies.com/measuring-cytotoxicity-proliferation-spectrophotometry-fluorescence-alamarBlue.html). […] Conversion of Alamar Blue was measured with a plate reader (SpectraMax M3; Molecular Devices) by fluorescence (excitation wavelength: 555 nm; emission wavelength: 585 nm; cutoff 570 nm; autogain). […]

human cell lines = experiment: Cytotoxicity profiling against a panel of human cell lines; details: human cell lines of Table 2, with the exception of ES-2; read-out: IC50 levels, range for each of the cell lines tested
Procedure: Cell culture cytotoxicity screening. The compounds were evaluated for their ability to kill cancer cell lines in culture, using HOS (osteosarcoma); ES-2 (ovarian cancer); HCT 116 (colon cancer); A549 (lung carcinoma); and A172 (glioma) cells. Human skin fibroblast cells (HFF-1) were also assessed. Cells were seeded (3000 cells well^−1 for ES-2, HCT 116, A549 and A172; 4000 cells well^−1 for HFF-1 and 2500 cells well^−1 for HOS) in a 96-well plate and allowed to attach overnight. Cells were treated with pantaphos in water. The concentrations of the tested compounds were 5 nM to 100 μM (1% water final; 100 μl well^−1). Raptinal (50 μM) was used as a dead control. On each plate, five technical replicates per compound were performed. 72 hours post-treatment, cell viability was assessed using the Alamar Blue method (http://www.bio-rad-antibodies.com/measuring-cytotoxicity-proliferation-spectrophotometry-fluorescence-alamarBlue.html). Alamar Blue solution (10 μl of 440 μM resazurin in sterile 1×PBS) was added to each well, and the plate was incubated for 3-4 hrs. Conversion of Alamar Blue was measured with a plate reader (SpectraMax M3; Molecular Devices) by fluorescence (excitation wavelength: 555 nm; emission wavelength: 585 nm; cutoff 570 nm; autogain). Percentage death was determined by normalizing to water-treated cells and Raptinal-treated cells. […]

Candida albicans SN250 = experiment: Fungicidal bioassay (MIC), Candida albicans
Procedure: Bacteria, plasmids and growth conditions. Bacterial strains, plasmids and primers used in this study are described in Table 3 and 4. General chemical and molecular biology reagents were purchased from Sigma-Aldrich or New England Biolabs. Phosphinothricin (glufosinate) was purchased from GoldBio (CAS #77182-82-2). Standard bacterial growth media were prepared as described (Current Protocols in Molecular Biology 2019, 125:e81, e82, e83). E. coli strains were typically grown at 37° C.; P. ananatis strains were typically grown at 30° C. Phosphonate induction media (PIM) was prepared as follows: 8.37 g/L MOPS, 0.72 g/L Tricine, 0.58 g/L NaCl, 0.51 g/L NH4Cl, 1.6 g/L KOH, 0.1 g/L MgCl2·6H2O, 0.05 g/L K2SO4, 0.2 g/L K2HIPO4 were dissolved H2O and steam sterilized for 20 min at 121° C. […]
(§2) Fungicidal bioassays. […] Minimum Inhibitory Concentration (MIC) was determined visually by finding the concentration of compound at which there was no visual difference between that concentration and the uninoculated media control.

[2] = tested on: Saccharomyces cerevisiae X2180-1A; experiment: Fungicidal bioassay (MIC), Saccharomyces cerevisiae; details: for MIC: Saccharomyces cerevisiae, X21801A, 48 hrs growth, CLSI
Procedure: Bacteria, plasmids and growth conditions. Bacterial strains, plasmids and primers used in this study are described in Table 3 and 4. General chemical and molecular biology reagents were purchased from Sigma-Aldrich or New England Biolabs. Phosphinothricin (glufosinate) was purchased from GoldBio (CAS #77182-82-2). Standard bacterial growth media were prepared as described (Current Protocols in Molecular Biology 2019, 125:e81, e82, e83). E. coli strains were typically grown at 37° C.; P. ananatis strains were typically grown at 30° C. Phosphonate induction media (PIM) was prepared as follows: 8.37 g/L MOPS, 0.72 g/L Tricine, 0.58 g/L NaCl, 0.51 g/L NH4Cl, 1.6 g/L KOH, 0.1 g/L MgCl2·6H2O, 0.05 g/L K2SO4, 0.2 g/L K2HIPO4 were dissolved H2O and steam sterilized for 20 min at 121° C. After cooling, 1× sterile trace element solution was added (1000× stock: 1.5 g/L nitrilotriacetic acid trisodium salt, 0.8 g/L Fe(NH4)2(SO4)2·7H2O, 0.2 g/L Na2SeO3, 0.1 g/L CoCl2·6H2O, 0.1 g/L MnSO4·H2O, 0.1 g/L Na2MoO4·2H2O, 0.1 g/L Na2WO4·2H2O, 0.1 g/L ZnSO4·7H2O, 0.1 g/L NiCl2·6H2O, 0.01 g/L H3BO3, 0.01 g/L CuSO4·5H2O) followed by addition of 1% (v/v) sterile glycerol and 50 μg/mL sterile kanamycin. For culturing of Candida and Saccharomyces strains, Rosewell Park Memorial Institute 1640 medium (RPMI; Sigma-Aldrich R6504) was used for liquid culturing and Sabouraud Dextrose Agar (SDA; Difco™ 210950) for solid plating unless otherwise specified. For Aspergillus strains, Rosewell Park Memorial Institute 1640 medium (RPMI) was used for liquid culturing and Potato Dextrose Agar (PDA; Difco™ 213400) was used for solid plating unless otherwise specified. YMM medium (6.7 g/L yeast nitrogen base without amino acids [BD Difco™ 291940], 20 g/L glucose, 1× trace element solution) was used as minimal media for fungal strains.
as §2

With `O=C(O)/C=C(\C(=O)O)C(O)P(=O)(O)O` (stereo not shown) [pantaphos, 2-(hydroxy(phosphono)methyl)maleate] the IC50 ([1]; 72-hour treatment (Table 6)) was greater than 100 µM, the “cytotoxicity at the maximum dose, in words” value ([1]; ES-2, maximum dose) was “unaffected” and the IC50 ([1]; Homo sapiens, 72 hours) was greater than 100 µM. For the same molecule, the Emax (SK-ML-28 (melanoma)) was 47 to 51%, the IC50 (human cell lines) was 6 to 37 µM and the MIC (Candida albicans SN250; Candida albicans, SN250, RPMI 1640 medium, 48 hrs growth, CLSI, read-out: MIC, Rich medium) was greater than 125 µM. The “effect on the growth of fungi, in words” value (Candida albicans SN250; rich or minimal media) was “no effect on the growth”, the MIC ([2]; M9 minimal medium, read-out: MIC, Minimal medium) was greater than 62.5 µM and the MIC ([2]; RPMI 1640 medium, read-out: MIC, Rich medium) was greater than 125 µM. The “effect on the growth of fungi, in words” value ([2]; rich or minimal media) was “no effect on the growth”.

— patent publication US20250282802A1, “P[…] AND METHODS” (priority 2020, published 2025)
